We go through 12 molecules from US20160235727A1, “NOVEL PYRROLIDINE DERIVED BETA 3 ADRENERGIC RECEPTOR AGONISTS” (Merck Sharp & Dohme Corp., priority 2013, published 2016).

The test system of test [1] is rats. As to conditions: cited from earlier work.
Test [2] deals with T1, human β3-AR (Homo sapiens, UniProt P13945).
T1 construct: expressed in transfected cells; host or cells: CHO (Chinese hamster ovary) cells, stably transfected
The test can be described thus: cAMP functional agonist assay (LANCE TR-FRET) in CHO cells expressing cloned human β3-AR. The format is cell-based. The settings on record: for EC50: CHO cells stably expressing cloned human β3-adrenoceptor, cAMP release, read-out: Human β3-AR Agonism EC50; for Fold drop in potency vs. 2-chloropyridine analog: EC50 of comparative example divided by EC50 of corresponding 2-chloropyridine compound; for Human β3-AR Agonist Activity (%): percent maximum activation relative to isoproterenol.

Setting [3] is: intravenous, cystometric studies.

T1 sequence (P13945 whole entry): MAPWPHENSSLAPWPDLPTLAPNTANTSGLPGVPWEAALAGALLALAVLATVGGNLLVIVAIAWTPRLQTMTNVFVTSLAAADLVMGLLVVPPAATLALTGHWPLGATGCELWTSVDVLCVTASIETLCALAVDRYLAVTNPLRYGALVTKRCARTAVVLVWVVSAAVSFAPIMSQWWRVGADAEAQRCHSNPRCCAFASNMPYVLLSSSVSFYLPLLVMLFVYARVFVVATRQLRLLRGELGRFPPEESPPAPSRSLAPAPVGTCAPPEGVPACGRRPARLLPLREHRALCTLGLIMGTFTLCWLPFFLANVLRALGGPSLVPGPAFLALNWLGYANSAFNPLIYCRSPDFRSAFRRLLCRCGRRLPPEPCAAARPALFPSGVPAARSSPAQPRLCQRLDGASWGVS

Consider `C[C@H](Cc1ccc2c(c1)OC(C(=O)[O-])(C(=O)[O-])O2)NC[C@H](O)c1cccc(Cl)c1.[Na+].[Na+]` [CL316243], for which the bladder pressure entry in test [1] (intravenous administration) was “reduces”. Also, in test [1] (setting [3]), the bladder capacity result is given as “increases”, the micturition interval result is “prolongation” and the residual urine volume entry is given as “without increasing”.
As to `CC(=O)c1ccc([C@@H](O)[C@H]2CC[C@@H](Cc3ccc(C(=O)N(C)Cc4cccnc4)cc3)N2)cn1` [Example 21-J, 4-(((2S,5R)-5-((R)-(6-acetylpyridin-3-yl)(hydroxy)methyl)pyrrolidin-2-yl)methyl)-N-methyl-N-(pyridin-3-ylmethyl)benzamide], in test [2], the EC50 is at least 10000 nM, the “Fold drop in potency vs. 2-chloropyridine analog” value was over 2300 fold and the “Human β3-AR Agonist Activity (%)” value was 38%.
On to `CN(Cc1ccc(Cl)nc1)C(=O)c1ccc(C[C@@H]2CC[C@H]([C@H](O)c3ccccc3)N2)cc1` [Example 30-B, N-((6-chloropyridin-3-yl)methyl)-4-(((2S,5R)-5-((R)-hydroxy(phenyl)methyl)pyrrolidin-2-yl)methyl)-N-methylbenzamide], for which, in test [2], the 50% effective concentration (EC50) came to 28 nM, the “Fold drop in potency vs. 2-chloropyridine analog” value stood at 8.9 fold and the “Human β3-AR Agonist Activity (%)” value amounted to 100%.
Take `CN(Cc1cncc(-c2nnn[nH]2)c1)C(=O)c1ccc(C[C@@H]2CC[C@H]([C@H](O)c3ccc(Cl)nc3)N2)cc1` [Example 37-A, N-((5-(1H-tetrazol-5-yl)pyridin-3-yl)methyl)-4-(((2S,5R)-5-((R)-(6-chloropyridin-3-yl)(hydroxy)methyl)pyrrolidin-2-yl)methyl)-N-methylbenzamide]: in test [2], the EC50 is 27 nM and the “Human β3-AR Agonist Activity (%)” value was 94%.
`COc1ncccc1CN(C)C(=O)c1ccc(C[C@@H]2CC[C@H]([C@H](O)c3ccccc3)N2)cc1` [Example 25-B, 4-(((2S,5R)-5-((R)-hydroxy(phenyl)methyl)pyrrolidin-2-yl)methyl)-N-((2-methoxypyridin-3-yl)methyl)-N-methylbenzamide]: in test [2], the EC50 was 109 nM, the “Fold drop in potency vs. 2-chloropyridine analog” value was determined as 6.0 fold and the “Human β3-AR Agonist Activity (%)” value came to 96%.
With `CN(Cc1nc2ccsc2c(=O)[nH]1)C(=O)c1ccc(C[C@@H]2CC[C@H]([C@H](O)c3ccc(Cl)nc3)N2)cc1` [Example 44-A, 4-(((2S,5R)-5-((R)-(6-chloropyridin-3-yl)(hydroxy)methyl)pyrrolidin-2-yl)methyl)-N-methyl-N-((4-oxo-3,4-dihydrothieno[3,2-d]pyrimidin-2-yl)methyl)benzamide], in test [2], the EC50 came out at 2 nM and the “Human β3-AR Agonist Activity (%)” value is 99%.
Taken in the same sequence, the figures for `Cc1nnc(-c2cncc(CN(C)C(=O)c3ccc(C[C@@H]4CC[C@H]([C@H](O)c5ccc(Cl)nc5)N4)cc3)c2)o1` [Example 36-A, 4-(((2S,5R)-5-((R)-(6-chloropyridin-3-yl)(hydroxy)methyl)pyrrolidin-2-yl)methyl)-N-methyl-N-((5-(5-methyl-1,3,4-oxadiazol-2-yl)pyridin-3-yl)methyl)benzamide] were 14 nM and 92%.
For `CN(C(=O)c1ccc(C[C@@H]2CC[C@H]([C@H](O)c3ccc(Cl)nc3)N2)cc1)C1CCc2ncccc21` (stereo partly drawn) [Example 24-A, 4-(((2S,5R)-5-((R)-(6-chloropyridin-3-yl)(hydroxy)methyl)pyrrolidin-2-yl)methyl)-N-(6,7-dihydro-5H-cyclopenta[b]pyridin-5-yl)-N-methylbenzamide], in test [2], the EC50 is 42 nM and the “Human β3-AR Agonist Activity (%)” value is on record as 98%.
Taken in the same sequence, the figures for `CCOc1cc(CN(C)C(=O)c2ccc(C[C@@H]3CC[C@H]([C@H](O)c4ccc(Cl)nc4)N3)cc2)[nH]n1` [Example 11-A, 4-(((2S,5R)-5-((R)-(6-chloropyridin-3-yl)(hydroxy)methyl)pyrrolidin-2-yl)methyl)-N-((5-ethoxy-1H-pyrazol-3-yl)methyl)-N-methylbenzamide] were 7 nM and 95%.
For the molecule `COc1ccc(CN(C)C(=O)c2ccc(C[C@@H]3CC[C@H]([C@H](O)c4ccc(Cl)nc4)N3)cc2)cn1` [Example 29-A, 4-(((2S,5R)-5-((R)-(6-chloropyridin-3-yl)(hydroxy)methyl)pyrrolidin-2-yl)methyl)-N-((6-methoxypyridin-3-yl)methyl)-N-methylbenzamide], in test [2], the 50% effective concentration (EC50) turned out to be 17 nM and the “Human β3-AR Agonist Activity (%)” value is 94%.
As to `Cc1[nH]nc(CN(C)C(=O)c2ccc(C[C@@H]3CC[C@H]([C@H](O)c4ccccc4)N3)cc2)c1O` [Example 15-B, 4-(((2S, 5R)-5-((R)-hydroxy(phenyl)methyl)pyrrolidin-2-yl)methyl)-N-((4-hydroxy-5-methyl-1H-pyrazol-3-yl)methyl)-N-methylbenzamide], in test [2], the EC50 is 5 nM, the “Fold drop in potency vs. 2-chloropyridine analog” value is recorded as 5.9 fold and the “Human β3-AR Agonist Activity (%)” value was found to be 112%.
Taken in the same sequence, the figures for `CN(Cc1n[nH]c2c1CCC2)C(=O)c1ccc(C[C@@H]2CC[C@H]([C@H](O)c3ccccc3)N2)cc1` [Example 13-B, 4-(((2S,5R)-5-((R)-hydroxy(phenyl)methyl)pyrrolidin-2-yl)methyl)-N-methyl-N-((1,4,5,6-tetrahydrocyclopenta[c]pyrazol-3-yl)methyl)benzamide] were 3 nM, 1.5 fold and 113%.
